Measurements as given in PMC7747971 (Plant Communications, 2020).

What was measured:
[1] = target: AtTPS19 (Arabidopsis thaliana, UniProt Q9LUE0); format: cell-based
[2] = target: T1, AtTPS22 (Arabidopsis thaliana, UniProt Q9LQ27); format: cell-based
T1 sequence (Q9LQ27 57-603): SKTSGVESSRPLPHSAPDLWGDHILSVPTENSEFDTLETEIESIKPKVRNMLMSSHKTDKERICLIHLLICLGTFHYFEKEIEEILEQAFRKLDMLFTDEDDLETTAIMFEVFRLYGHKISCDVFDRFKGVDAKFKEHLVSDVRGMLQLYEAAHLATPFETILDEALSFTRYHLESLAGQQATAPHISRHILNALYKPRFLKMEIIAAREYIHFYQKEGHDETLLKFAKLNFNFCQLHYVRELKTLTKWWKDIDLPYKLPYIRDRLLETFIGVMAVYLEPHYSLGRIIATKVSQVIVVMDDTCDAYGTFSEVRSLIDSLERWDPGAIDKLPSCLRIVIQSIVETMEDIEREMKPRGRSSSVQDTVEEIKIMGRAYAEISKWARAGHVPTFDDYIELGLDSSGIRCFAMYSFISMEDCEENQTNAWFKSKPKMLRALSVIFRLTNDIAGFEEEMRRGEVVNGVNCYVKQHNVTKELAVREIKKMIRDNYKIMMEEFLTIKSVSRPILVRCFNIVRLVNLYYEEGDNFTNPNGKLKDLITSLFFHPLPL

[3] = target: T2, AtTPS06 (Arabidopsis thaliana, UniProt Q84UU9); format: cell-based
T2 sequence (Q84UU9 53-611): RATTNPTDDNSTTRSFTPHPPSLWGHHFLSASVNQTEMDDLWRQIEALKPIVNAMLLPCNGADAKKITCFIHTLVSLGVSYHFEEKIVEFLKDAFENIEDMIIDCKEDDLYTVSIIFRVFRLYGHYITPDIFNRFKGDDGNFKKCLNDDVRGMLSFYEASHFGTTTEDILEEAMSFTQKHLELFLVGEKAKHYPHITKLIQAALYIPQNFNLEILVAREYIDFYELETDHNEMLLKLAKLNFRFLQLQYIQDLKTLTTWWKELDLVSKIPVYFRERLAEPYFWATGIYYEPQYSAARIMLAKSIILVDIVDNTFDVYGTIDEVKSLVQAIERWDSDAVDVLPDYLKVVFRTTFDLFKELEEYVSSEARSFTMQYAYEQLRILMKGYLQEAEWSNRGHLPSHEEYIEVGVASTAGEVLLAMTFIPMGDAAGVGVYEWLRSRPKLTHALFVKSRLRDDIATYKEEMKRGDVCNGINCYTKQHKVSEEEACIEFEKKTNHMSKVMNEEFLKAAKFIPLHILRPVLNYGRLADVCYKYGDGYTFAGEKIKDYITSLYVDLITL

[4] = target: AtTPS29 (Arabidopsis thaliana, UniProt Q9C6W6); format: cell-based
AtTPS29, sequence (Q9C6W6 51-607): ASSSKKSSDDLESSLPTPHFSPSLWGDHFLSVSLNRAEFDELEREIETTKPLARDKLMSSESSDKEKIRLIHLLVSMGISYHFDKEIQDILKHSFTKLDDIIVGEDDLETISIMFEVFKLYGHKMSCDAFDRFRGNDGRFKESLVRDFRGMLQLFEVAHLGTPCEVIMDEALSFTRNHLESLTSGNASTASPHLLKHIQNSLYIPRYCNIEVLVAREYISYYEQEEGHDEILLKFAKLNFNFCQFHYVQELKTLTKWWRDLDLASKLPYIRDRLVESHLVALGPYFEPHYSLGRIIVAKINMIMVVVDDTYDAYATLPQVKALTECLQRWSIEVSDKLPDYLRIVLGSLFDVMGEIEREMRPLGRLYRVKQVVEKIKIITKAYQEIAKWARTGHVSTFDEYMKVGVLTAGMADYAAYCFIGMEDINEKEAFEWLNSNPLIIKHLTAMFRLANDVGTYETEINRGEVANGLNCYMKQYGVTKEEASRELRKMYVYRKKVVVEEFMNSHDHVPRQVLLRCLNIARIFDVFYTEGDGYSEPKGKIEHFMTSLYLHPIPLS

[5] = target: AtTPS18 (Arabidopsis thaliana, UniProt Q9LUE2); experiment: X-ray crystal structure; format: binding; conditions: AtTPS18-PP complex
AtTPS18, sequence (Q9LUE2 52-605): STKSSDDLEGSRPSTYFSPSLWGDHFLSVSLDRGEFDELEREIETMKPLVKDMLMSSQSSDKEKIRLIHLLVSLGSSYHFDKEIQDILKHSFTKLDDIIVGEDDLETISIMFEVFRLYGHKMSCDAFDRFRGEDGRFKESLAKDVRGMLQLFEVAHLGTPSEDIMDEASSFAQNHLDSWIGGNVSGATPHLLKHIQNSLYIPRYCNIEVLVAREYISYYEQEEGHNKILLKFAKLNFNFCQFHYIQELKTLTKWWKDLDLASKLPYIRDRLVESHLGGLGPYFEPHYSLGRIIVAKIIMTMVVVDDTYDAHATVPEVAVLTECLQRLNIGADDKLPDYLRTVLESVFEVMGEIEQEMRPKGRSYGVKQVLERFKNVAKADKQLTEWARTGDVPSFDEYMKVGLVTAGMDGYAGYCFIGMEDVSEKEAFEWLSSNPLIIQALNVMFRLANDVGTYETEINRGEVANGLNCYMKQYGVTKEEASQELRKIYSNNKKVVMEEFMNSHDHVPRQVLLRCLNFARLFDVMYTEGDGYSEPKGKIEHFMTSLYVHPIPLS

AtTPS19, sequence (Q9LUE0 49-602): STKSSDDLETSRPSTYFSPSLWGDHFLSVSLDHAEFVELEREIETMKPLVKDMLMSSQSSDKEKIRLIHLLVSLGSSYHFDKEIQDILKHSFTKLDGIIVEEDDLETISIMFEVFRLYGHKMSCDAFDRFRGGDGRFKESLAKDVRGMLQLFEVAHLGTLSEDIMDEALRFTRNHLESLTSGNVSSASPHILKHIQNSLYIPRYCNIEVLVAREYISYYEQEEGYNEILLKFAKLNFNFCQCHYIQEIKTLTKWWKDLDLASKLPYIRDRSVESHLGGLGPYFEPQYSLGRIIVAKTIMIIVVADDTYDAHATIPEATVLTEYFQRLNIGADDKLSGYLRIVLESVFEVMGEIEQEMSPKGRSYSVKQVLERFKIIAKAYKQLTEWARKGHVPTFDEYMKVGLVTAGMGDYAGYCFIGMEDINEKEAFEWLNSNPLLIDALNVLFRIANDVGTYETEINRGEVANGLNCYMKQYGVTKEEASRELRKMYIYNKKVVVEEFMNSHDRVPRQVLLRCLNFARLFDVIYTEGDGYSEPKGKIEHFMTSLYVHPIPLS

SMILES: CC(C)=CCC/C(C)=C/CC/C(C)=C/CC/C(C)=C/CC/C(C)=C/COP(=O)(O)OP(=O)(O)O [GFPP]
- GC-MS of products in E. coli [1]: C8 (the main product of AtTPS19)
- GC-MS of products in E. coli [2]: sesterterpenes ... were detected in transgenic E. coli strains harboring AtTPS06, AtTPS22, or AtTPS29
- GC-MS of products in E. coli [3]: AtTPS06, a multi-product enzyme, produces more than ten different sesterterpenes from GFPP
- GC-MS of products in E. coli [4]: sesterterpenes ... were detected in transgenic E. coli strains harboring AtTPS06, AtTPS22, or AtTPS29

SMILES: O=P(O)(O)OP(=O)(O)O [PP]
- X-ray crystal structure [5]: AtTPS18-PP (PDB code 7BZB)
